In paper doi:10.1101/2020.06.11.145995v1 (biorxiv, 2020):
Where two headings read alike, the source gives them in different places.

How the values were obtained:
Assay in all cases: biochemical
CDK5 = CDK5 (Homo sapiens, UniProt Q00535)
CLK2 = CLK2 (Homo sapiens, UniProt P49760)
CSNK1G2 = CSNK1G2 (Homo sapiens, UniProt P78368)
CTK = CTK (Homo sapiens, UniProt P42679)
EGFR(L861Q) = EGFR(L861Q) (Homo sapiens, UniProt P00533, L861Q)
HPK1 = HPK1 (Homo sapiens, UniProt Q92918)
MEK1 = MEK1 (Homo sapiens, UniProt Q02750)
Chain of MEK1 (Q02750 whole entry): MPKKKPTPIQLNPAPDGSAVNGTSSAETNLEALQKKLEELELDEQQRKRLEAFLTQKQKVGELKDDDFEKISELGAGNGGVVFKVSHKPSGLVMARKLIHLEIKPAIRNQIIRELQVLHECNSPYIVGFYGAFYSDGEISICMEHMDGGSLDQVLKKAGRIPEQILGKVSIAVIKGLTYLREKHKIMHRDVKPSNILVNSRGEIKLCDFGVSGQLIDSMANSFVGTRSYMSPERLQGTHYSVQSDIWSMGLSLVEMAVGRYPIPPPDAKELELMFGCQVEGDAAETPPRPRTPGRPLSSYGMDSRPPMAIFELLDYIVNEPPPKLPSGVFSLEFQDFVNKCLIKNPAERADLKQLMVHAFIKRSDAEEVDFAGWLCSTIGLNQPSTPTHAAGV

MST2 = MST2 (Homo sapiens, UniProt Q13188)
Chain of MST2 (Q13188 whole entry): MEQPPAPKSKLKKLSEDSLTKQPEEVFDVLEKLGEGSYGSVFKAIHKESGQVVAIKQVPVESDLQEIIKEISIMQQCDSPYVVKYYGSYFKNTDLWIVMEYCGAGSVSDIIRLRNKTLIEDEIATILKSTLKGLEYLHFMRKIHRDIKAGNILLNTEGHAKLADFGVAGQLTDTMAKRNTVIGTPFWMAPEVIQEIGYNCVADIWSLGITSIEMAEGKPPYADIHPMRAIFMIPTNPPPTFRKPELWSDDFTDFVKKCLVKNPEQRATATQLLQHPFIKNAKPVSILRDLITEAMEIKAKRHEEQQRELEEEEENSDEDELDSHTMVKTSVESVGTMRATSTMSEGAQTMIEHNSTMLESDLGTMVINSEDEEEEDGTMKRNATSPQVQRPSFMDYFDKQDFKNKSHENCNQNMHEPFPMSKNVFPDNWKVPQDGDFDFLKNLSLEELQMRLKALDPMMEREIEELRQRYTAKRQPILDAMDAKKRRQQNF

[1] = target: ABL1(H396P)-phosphorylated (Homo sapiens, UniProt P00519, H396P)
[2] = target: ABL1(H396P)-nonphosphorylated (Homo sapiens, UniProt P00519, H396P)
[3] = target: ABL1(F317I)-phosphorylated (Homo sapiens, UniProt P00519, F317I)
KIT(V559D,V654A) = KIT(V559D,V654A) (Homo sapiens, UniProt P10721, V559D/V654A)
ABL1-phosphorylated = ABL1-phosphorylated (Homo sapiens, UniProt P00519)
GCN2(Kin.Dom.2,S808G) = GCN2(Kin.Dom.2,S808G) (Homo sapiens, UniProt Q9P2K8, S808G)
[4] = target: ABL1(Q252H)-nonphosphorylated (Homo sapiens, UniProt P00519, Q252H)
[5] = target: ABL1(M351T)-phosphorylated (Homo sapiens, UniProt P00519, M351T)
[6] = target: ABL1(F317I)-nonphosphorylated (Homo sapiens, UniProt P00519, F317I)
[7] = target: ABL1(Q252H)-phosphorylated (Homo sapiens, UniProt P00519, Q252H)
[8] = target: ABL1(F317L)-nonphosphorylated (Homo sapiens, UniProt P00519, F317L)
[9] = target: ABL1(T315I)-nonphosphorylated (Homo sapiens, UniProt P00519, T315I)
[10] = target: JAK1(JH2domain-pseudokinase) (Homo sapiens, UniProt P23458)
[11] = target: JAK2(JH1domain-catalytic) (Homo sapiens, UniProt O60674)
Chain of JAK2(JH1domain-catalytic) (O60674 whole entry): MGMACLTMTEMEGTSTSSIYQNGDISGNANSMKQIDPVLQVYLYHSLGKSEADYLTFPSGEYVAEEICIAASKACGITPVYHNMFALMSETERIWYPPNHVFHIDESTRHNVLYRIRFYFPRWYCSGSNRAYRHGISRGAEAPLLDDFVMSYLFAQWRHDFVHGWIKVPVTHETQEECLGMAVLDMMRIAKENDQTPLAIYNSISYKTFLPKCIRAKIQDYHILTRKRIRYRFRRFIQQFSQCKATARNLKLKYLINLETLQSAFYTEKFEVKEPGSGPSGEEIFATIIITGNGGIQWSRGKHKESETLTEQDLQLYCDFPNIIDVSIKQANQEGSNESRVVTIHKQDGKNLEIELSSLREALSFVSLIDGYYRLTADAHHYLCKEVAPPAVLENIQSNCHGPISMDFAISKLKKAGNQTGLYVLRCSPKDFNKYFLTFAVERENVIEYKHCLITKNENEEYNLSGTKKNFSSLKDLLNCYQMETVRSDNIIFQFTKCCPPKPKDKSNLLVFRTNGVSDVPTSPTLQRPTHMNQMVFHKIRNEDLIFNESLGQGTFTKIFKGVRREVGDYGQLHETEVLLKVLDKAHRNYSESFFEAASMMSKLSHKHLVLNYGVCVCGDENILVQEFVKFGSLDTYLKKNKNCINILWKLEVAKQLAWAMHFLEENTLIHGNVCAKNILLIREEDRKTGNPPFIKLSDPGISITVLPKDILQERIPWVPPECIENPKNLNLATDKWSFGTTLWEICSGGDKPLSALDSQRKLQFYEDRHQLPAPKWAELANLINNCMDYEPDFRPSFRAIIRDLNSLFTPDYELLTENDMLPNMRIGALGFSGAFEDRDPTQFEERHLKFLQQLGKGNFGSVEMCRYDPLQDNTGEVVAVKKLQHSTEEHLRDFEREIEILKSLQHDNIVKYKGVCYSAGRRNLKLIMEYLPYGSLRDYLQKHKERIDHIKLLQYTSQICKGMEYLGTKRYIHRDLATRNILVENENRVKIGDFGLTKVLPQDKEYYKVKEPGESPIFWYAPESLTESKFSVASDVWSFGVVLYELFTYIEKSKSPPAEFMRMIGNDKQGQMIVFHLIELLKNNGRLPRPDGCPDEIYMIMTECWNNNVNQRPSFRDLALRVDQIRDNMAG

[12] = target: ABL1(F317L)-phosphorylated (Homo sapiens, UniProt P00519, F317L)
[13] = target: ABL1(T315I)-phosphorylated (Homo sapiens, UniProt P00519, T315I)
[14] = target: JAK1(JH1domain-catalytic) (Homo sapiens, UniProt P23458)
DYRK1B = DYRK1B (Homo sapiens, UniProt Q9Y463)
Chain of DYRK1B (Q9Y463 whole entry): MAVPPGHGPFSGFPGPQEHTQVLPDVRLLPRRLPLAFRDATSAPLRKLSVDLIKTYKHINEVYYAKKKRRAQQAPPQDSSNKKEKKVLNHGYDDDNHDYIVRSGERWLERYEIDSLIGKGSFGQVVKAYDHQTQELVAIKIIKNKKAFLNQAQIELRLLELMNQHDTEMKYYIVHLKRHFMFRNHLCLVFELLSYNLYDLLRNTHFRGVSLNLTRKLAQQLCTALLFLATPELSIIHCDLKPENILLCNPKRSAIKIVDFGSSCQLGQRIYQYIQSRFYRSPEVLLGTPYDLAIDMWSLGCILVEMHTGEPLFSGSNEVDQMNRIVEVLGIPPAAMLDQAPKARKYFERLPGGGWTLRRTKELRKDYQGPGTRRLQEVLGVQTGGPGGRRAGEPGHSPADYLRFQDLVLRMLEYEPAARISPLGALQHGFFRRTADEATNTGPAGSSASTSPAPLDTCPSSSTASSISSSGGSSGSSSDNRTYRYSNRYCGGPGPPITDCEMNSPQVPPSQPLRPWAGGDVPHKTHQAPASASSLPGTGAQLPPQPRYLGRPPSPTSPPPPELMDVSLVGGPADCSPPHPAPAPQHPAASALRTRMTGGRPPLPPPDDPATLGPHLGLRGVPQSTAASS

LTK = LTK (Homo sapiens, UniProt P29376)
[15] = read-out: HYJ-2-002-1 (1uM) % control
[16] = read-out: CPT-1-70-1 (1uM) % control

Chain of CLK2 (P49760 whole entry): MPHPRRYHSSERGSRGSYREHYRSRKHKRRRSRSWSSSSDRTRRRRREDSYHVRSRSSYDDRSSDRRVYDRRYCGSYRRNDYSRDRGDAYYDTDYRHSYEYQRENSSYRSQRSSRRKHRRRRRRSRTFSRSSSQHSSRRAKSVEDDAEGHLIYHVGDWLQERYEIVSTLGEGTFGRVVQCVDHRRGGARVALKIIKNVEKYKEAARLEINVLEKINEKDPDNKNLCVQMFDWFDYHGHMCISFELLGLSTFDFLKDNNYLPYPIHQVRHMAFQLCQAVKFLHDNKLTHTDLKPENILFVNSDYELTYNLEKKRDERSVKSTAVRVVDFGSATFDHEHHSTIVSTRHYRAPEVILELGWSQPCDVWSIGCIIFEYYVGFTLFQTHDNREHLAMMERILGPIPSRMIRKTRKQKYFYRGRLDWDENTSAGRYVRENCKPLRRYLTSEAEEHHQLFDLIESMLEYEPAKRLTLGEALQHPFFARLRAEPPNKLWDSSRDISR
Chain of EGFR(L861Q) (P00533 whole entry L861Q): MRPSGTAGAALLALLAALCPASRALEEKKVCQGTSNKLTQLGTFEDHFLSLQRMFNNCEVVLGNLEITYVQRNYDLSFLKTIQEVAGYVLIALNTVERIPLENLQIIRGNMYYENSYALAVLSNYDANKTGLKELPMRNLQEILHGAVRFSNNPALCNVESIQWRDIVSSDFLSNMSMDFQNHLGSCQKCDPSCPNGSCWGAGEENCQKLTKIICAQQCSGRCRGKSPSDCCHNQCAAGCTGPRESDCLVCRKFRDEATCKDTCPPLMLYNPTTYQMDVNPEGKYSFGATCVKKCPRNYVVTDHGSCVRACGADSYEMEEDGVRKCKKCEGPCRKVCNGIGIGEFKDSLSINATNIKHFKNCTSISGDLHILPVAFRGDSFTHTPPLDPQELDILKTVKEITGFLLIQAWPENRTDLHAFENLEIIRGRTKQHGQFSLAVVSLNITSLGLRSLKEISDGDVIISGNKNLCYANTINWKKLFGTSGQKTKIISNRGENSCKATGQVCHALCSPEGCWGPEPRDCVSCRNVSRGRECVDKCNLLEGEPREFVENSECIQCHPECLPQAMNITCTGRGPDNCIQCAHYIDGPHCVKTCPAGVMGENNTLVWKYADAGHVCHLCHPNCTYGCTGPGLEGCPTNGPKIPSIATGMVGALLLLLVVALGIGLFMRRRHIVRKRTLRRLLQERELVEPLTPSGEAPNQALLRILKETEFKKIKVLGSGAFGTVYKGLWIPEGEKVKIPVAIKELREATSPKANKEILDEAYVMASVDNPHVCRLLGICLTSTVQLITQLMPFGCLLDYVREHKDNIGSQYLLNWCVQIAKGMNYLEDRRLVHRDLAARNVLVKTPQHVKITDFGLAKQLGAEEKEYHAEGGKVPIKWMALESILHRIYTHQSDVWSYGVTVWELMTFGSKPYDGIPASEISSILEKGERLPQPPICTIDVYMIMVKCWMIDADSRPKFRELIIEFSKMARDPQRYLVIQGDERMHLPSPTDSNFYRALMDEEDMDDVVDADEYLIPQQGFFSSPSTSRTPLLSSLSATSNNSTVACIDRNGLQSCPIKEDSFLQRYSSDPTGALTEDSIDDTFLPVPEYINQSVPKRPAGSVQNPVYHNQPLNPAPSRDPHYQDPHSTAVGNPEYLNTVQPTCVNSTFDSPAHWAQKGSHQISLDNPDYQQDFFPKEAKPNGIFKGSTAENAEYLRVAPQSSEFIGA
Chain of CDK5 (Q00535 whole entry): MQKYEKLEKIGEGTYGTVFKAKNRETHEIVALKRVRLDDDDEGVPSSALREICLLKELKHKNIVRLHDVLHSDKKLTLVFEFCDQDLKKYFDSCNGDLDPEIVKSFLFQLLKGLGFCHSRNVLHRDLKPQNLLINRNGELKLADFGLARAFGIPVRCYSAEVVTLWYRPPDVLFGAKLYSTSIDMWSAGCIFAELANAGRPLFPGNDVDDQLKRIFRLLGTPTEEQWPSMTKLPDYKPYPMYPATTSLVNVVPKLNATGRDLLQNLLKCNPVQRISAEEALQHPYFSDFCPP

CCN1CCN(Cc2ccc(NC(=O)c3ccc(C)c(CCc4cnc5[nH]ccc5c4OC)c3)cc2C(F)(F)F)CC1 [HYJ-2-002-1]
remaining activity at 1 µM (CDK5; [15]): 100%
remaining activity at 1 µM (CLK2; [15]): 85%
remaining activity at 1 µM (CSNK1G2; [15]): 45%
remaining activity at 1 µM (CTK; [15]): 91%
remaining activity at 1 µM (EGFR(L861Q); [15]): 0.85%
remaining activity at 1 µM (HPK1; [15]): 3.4%
remaining activity at 1 µM (MEK1; [15]): 100%
remaining activity at 1 µM (MST2; [15]): 83%
remaining activity at 1 µM [1, 15]: 0.1%
remaining activity at 1 µM [2, 15]: 0%
remaining activity at 1 µM [3, 15]: 34%
remaining activity at 1 µM (KIT(V559D,V654A); [15]): 28%
remaining activity at 1 µM (ABL1-phosphorylated; [15]): 0.1%
remaining activity at 1 µM (GCN2(Kin.Dom.2,S808G); [15]): 14%
remaining activity at 1 µM [4, 15]: 0.05%
remaining activity at 1 µM [5, 15]: 0.85%
remaining activity at 1 µM [6, 15]: 0%
remaining activity at 1 µM [7, 15]: 1%
remaining activity at 1 µM [8, 15]: 0%
remaining activity at 1 µM [9, 15]: 9%
remaining activity at 1 µM [10, 15]: 93%
remaining activity at 1 µM [11, 15]: 57%
remaining activity at 1 µM [12, 15]: 2%
remaining activity at 1 µM [13, 15]: 0.75%
remaining activity at 1 µM [14, 15]: 41%
remaining activity at 1 µM (DYRK1B; [15]): 76%
remaining activity at 1 µM (LTK; [15]): 89%

CN1CCN(c2ccc(Nc3nc(Oc4ccc(NC(=O)CCl)cc4)c4cc[nH]c4n3)cc2)CC1 [CPT1-70-1]
remaining activity at 1 µM (CDK5; [16]): 100%
remaining activity at 1 µM (CLK2; [16]): 22%
remaining activity at 1 µM (CSNK1G2; [16]): 0.7%
remaining activity at 1 µM (CTK; [16]): 100%
remaining activity at 1 µM (EGFR(L861Q); [16]): 18%
remaining activity at 1 µM (HPK1; [16]): 13%
remaining activity at 1 µM (MEK1; [16]): 51%
remaining activity at 1 µM (MST2; [16]): 86%
remaining activity at 1 µM [1, 16]: 100%
remaining activity at 1 µM [2, 16]: 7.2%
remaining activity at 1 µM [3, 16]: 100%
remaining activity at 1 µM (KIT(V559D,V654A); [16]): 100%
remaining activity at 1 µM (ABL1-phosphorylated; [16]): 51%
remaining activity at 1 µM (GCN2(Kin.Dom.2,S808G); [16]): 13%
remaining activity at 1 µM [4, 16]: 52%
remaining activity at 1 µM [5, 16]: 86%
remaining activity at 1 µM [6, 16]: 100%
remaining activity at 1 µM [7, 16]: 100%
remaining activity at 1 µM [8, 16]: 100%
remaining activity at 1 µM [9, 16]: 46%
remaining activity at 1 µM [10, 16]: 0.75%
remaining activity at 1 µM [11, 16]: 1.2%
remaining activity at 1 µM [12, 16]: 99%
remaining activity at 1 µM [13, 16]: 19%
remaining activity at 1 µM [14, 16]: 77%
remaining activity at 1 µM (DYRK1B; [16]): 79%
remaining activity at 1 µM (LTK; [16]): 100%
